Source: patent publication US11591306B2, “Vitamin E-based amphipathic compound, and use thereof” (Industry-University Cooperation Foundation Hanyang …, priority 2017, dated 2023)

Legend:
β2AR-Gs complex = target: T1, β2AR-Gs complex (Homo sapiens, UniProt P07550); test: Negative stain EM analysis of β2AR-Gs complex; conditions: complex purified by VEG-3
T1 construct: made in house
Protocol: A β2AR-Gs protein complex was prepared for electron microscopy using a conventional negative staining protocol, and imaged at room temperature using a Tecnai T12 electron microscope operated at 120 kV according to a low-dose procedure. Images recorded at a magnification of 71,138× and a defocus value of approximately −1.1 urn on a Gatan US4000 CCD camera. All images were binned (2×2 pixels) to obtain a pixel size of 4.16 Å at a specimen level. Particles were manually […] using e2boxer (part of the EMAN2 software suite). 2D reference-free alignment and classification of particle projections were performed using ISAC. 23,035 projections of β2AR-Gs were subjected to ISAC producing 19 classes consistent in two-way matching and 5401 particle projections.

UapA = UapA (Emericella nidulans, UniProt Q07307, G411V); test: UapA extraction and thermal stability by fluorescence size exclusion chromatography (FSEC); set-up: made in house
Protocol: The membrane containing UapA was resuspended in a pH 8.0 PBS buffer containing 10 mM imidazole, 150 mM NaCl and 10% glycerol, and a protein concentration was measured. The membrane was adjusted to a concentration of 1 mg/ml, and a 1 ml aliquot was incubated for 60 minutes with each of 1.0 mL of DDM, LMNG, VEG-3 and VEG-5, on ice under stirring. A 100 uL aliquot was obtained from each tube and subjected to ultracentrifugation for 10 minutes at 150,000 g, and then fluorescent SEC (FSEC) was performed on each sample. The remaining soluble fractions were incubated for 10 minutes at 45° C. The thermally-treated samples were applied to FSEC to monitor the integrity of a transporter. FSEC was performed using a Superose6 column (GE Healthcare) equilibrated with a buffer containing an appropriate preparation (DDM, LMNG, VEG-3 or VEG-5).

LHI-RC complex = test system: T2, LHI-RC complex; test: LHI-RC structural stability, UV-Vis absorbance at 875 nm; set-up: species or system R. capsulatus; conditions: CMC+0.04 wt % or CMC+0.2 wt %, 20 days at 25° C.
T2 construct: His tag (only implied by Ni2+-NTA capture and imidazole elution; put on M from own knowledge of pUHTM86Bgl); made in house; host or cells: R. capsulatus U43 [pUHTM86Bgl] membranes
Protocol: An experiment was conducted to evaluate the ability of VEGs to stabilize the structure of LHI-RC. The photosynthetic superassembly consists of a complex of light-Harvesting complex I (LHI) and a reaction center (RC). The structural stability of LHI-RC was measured by a method of monitoring the structure of a protein for 20 days using UV-Vis spectroscopy. As amphipathic molecules, all VEGs of the present invention and conventional amphipathic molecules DDM and OG were used, and the concentrations of the amphipathic molecules were measured at CMC+0.04 wt % (FIG. 5A) and CMC+0.2 wt % ([…]), and the stability of the LHI-RC protein was investigated according to the concentration of an amphipathic molecule.
Specifically, LHI-RC stability was measured using a method disclosed in the paper published in 2008 by the inventors (P. S. Chae et al., ChemBioChem 2008, 9, 1706-1709). […] A 10 mL aliquot of the solution of the frozen R. capsulatus membrane was homogenized using a glass homogenizer, and incubated with gentle stirring at 32° C. for 30 minutes. The homogenized membrane was treated with 1.0 wt % DDM for 30 minutes at 32° C. […] Protein stability was measured at regular intervals during the cubation by measuring UV-Vis spectra of the samples in the range of 650 to 950 nm. Protein integrity was evaluated by monitoring absorbance (A875) at 875 nm.

[1] = Critical micelle concentration by hydrophobic fluorescence staining with diphenylhexatriene (DPH); type: physicochemical; conditions: aqueous solution
Protocol: A method of measuring CMC is not particularly limited, and may be a method widely known in the art, for example, fluorescent staining using diphenylhex riene (DPH).
To identify the properties of VEGs synthesized according to the synthetic methods of Preparation Examples 1 to […] molecular weights (M.W.) and critical micellar concentrations (CMCs) of VEGs, and the hydrodynamic radii (Rh) of formed micelles were measured.
Specifically, the CMCs were measured using hydrophobic fluorescence staining and diphenylhexatriene (DPH), and the hydrodynamic radii (Rh) of the micelles formed by each formulation were measured by dynamic light scattering (DLS).

SMILES: Cc1c(C)c2c(c(C)c1OCC(=O)NC(CO[C@@H]1OC(CO)[C@@H](O[C@H]3OC(CO)[C@@H](O)[C@H](O)C3O)[C@H](O)C1O)CO[C@@H]1OC(CO)[C@@H](O[C@H]3OC(CO)[C@@H](O)[C@H](O)C3O)[C@H](O)C1O)CCC(C)(CCCC(C)CCCC(C)CCCC(C)C)O2 (stereo partly drawn) [VEG-3]
- Homogeneity of β2AR-Gs complex particles (negative stain EM) (β2AR-Gs complex): highly homogeneous
- UapA integrity after thermal treatment (FSEC) (UapA; 45° C. for 10 minutes): maintained protein integrity
- Ability to extract and solubilize UapA (FSEC) (UapA; before thermal treatment, 60 minutes on ice): LMNG and DDM were superior to VEG-3 and VEG-5
- Ability to maintain the integrity of the LHI-RC complex (A875) (LHI-RC complex): most excellent effect
- CMC [1]: ~0.002 mM
- CMC (wt %) [1]: ~0.0002 wt %
